# Data reported in US10328051B2, “Proline or proline derivatives for the treatment of dementia” (priority 2014, dated 2019).
# Legend:
# [1] = Tissue distribution, bioaccumulation and pharmacokinetics following multiple dose administration of 3H-CHP in mice (Study IPSS E015); type: in vivo
# Text: Example 2. A Study in Mice on the Tissue Distribution, Bioaccumulation and Pharmacokinetics in Tissues, Connective and BrainTissues Following Multiple Dose Administration of ^3H-CHP Study No. IPSS E015 (FIG. 2)
# According to this invention the study has been designed and performed as follows:
# From each mouse sacrificed, the following organs & tissues samples were taken:
# Liver, kidney, pancreas, limbic system, spinal fluid, brain stem, cerebrum, cerebellum, cartilage, ligaments and tendons (dense or fibrous connective tissue), loose connective tissue, and reticular connective tissue (supports lymph nodes, bone marrow, and spleen)
# [2] = Multiple dose ascending bioavailability and safety study (Phase I) with oral CHP (Study 0202-71); type: in vivo, human
# Experimental: Example 5—Study Title: Multiple Dose Ascending Bioavailability and Safety Study Phase 1 with Oral CHP-GALMED Study No: 0202-71
# 12 healthy Caucasian males were recruited (age: 18-45 years).
# Multiple doses of CHP were orally administered: • 4×2.0 g CHP per day, for 14 consecutive days (total daily dose=8.0 g CHP) • 4×3.0 g CHP per day, for 14 consecutive days (total daily dose=12.0 g CHP) Each dose level was administered to all volunteers.
# Objectives • To determine the pharmacokinetic parameters and safety of CHP and THP in plasma following oral administration of multiple doses of 8 g CHP (4×2 g) and 12 g CHP (4×3 g)—4× daily, τ=6 h, respectively, in 12 healthy subjects on Day 1 and Day 14. • To model and simulate plasma concentrations of CHP and THP during Days 1 to 14.
# [3] = tested on: patients suffering from cancer, chronic liver diseases (liver fibrosis) and mild Alzheimer's disease/dementia; experiment: Phase II clinical studies (Example 12.1-12.4): safety, toxicity (CTC), Quality of Life, immune functions; type: in vivo, human
# Text: According to the example No. 12 in this invention, the safety, efficacy and Quality of Life (QoL) of CHP as monotherapy have been investigated in patients suffering from cancer, chronic liver diseases (liver fibrosis) and mild Alzheimer's disease/dementia The following four (4) ICH-GCP
# Title: Phase II—CHP as antitumour agent in patients with resected colorectal cancer and liver metastasis; 60 patients—Study IPSS-A04 (Example 12.1).
# Title: Phase II—CHP in patients with locally advanced or metastatic pancreatic cancer—14 patients Study IPSS B013 (Example 12.2).
# Title: Evaluation of safety and efficacy of CHP in patients with urogenital Cancer—25 patients—Study IPSS-D002 (Example 12.3).
# Title: Phase II—CHP in patients with chronic viral hepatitis, chronic alcohol liver diseases without cirrhosis or primary sclerosing cholangitis 45 patients—Study IPSS-B025 (Example 12.4).
# According to the examples in this invention, the objectives of these studies were: • Assessment the efficacy and safety of CHP as monotherapy have been investigated in patients suffering from cancer, chronic liver diseases (liver fibrosis) and mild Alzheimer's disease/dementia.
# The following validated evaluation systems have been used: • 1. Evaluation of Quality of Life as measured by the FACT questionnaires. • 2. Evaluation of the toxicity and safety of CHP treatment as measured by the Common Toxicity Criteria CTC. • Subjective assessments mild Alzheimer' patients: Overall physical conditions, Cognitive conditions, Quality of Life (QoL)
# According to the study protocols for the performance of these studies, oral and intravenous CHP as monotherapy have been administered to the patients at high doses e.g. 8 gram/day for approximately 180 consecutive days. A number of patients have received the medication for approximately 18 months as mono therapy.
# [4] = tested on: patients with mild or moderate Alzheimer's disease and Dementia; experiment: Physical and cognitive conditions and Quality of Life questionnaire in patients with mild and moderate Alzheimer's disease (Example 13); type: in vivo, human
# Text: Example 13—Physical, and Cognitive Conditions—Alzheimer—Dementia Measure and Quality of Life (QoL) (FIGS. 13.1, 13.2, 13.3)
# According to the ICH-GCP requirements for assessment of the Quality of Life (QoL) the validated questionnaire related to the disease e.g. cancer have been administered in the Phase II clinical studies: IPSS-A04, according to the example 12.1 in this invention.
# Additional developed modules to these questionnaire provided greater details on the particular aspects of quality of life for those patients who participated in these clinical studies and diagnosed with mild and moderate Alzheimer's disease based on the presence of neuropsychiatric symptoms.
# Diagnosis begun with a thorough physical exam and complete medical history including cerebrovascular disease and supplemental information from family members. Simple tests of mental function, including word recall, object naming, and number symbol marching, were used to track changes in the patient's cognitive ability. Ruling out depression was part of the diagnosis. Eight (8) patients over the age of 65 years met these criteria and have been selected for the assessment of CHP effects on the quality of life according to the items mentioned below including the cognitive status.
# The administration of intravenous (iv) and oral CHP as monotherapy has been scheduled according to examples 12.1 in this invention in the patient's group G2—in study IPSS-A04.
# The assessment of the QoL, physical, and cognitive conditions—Alzheimer-Dementia has been completed by the patients/care providers in the following intervals (FIGS. 13.1-13.3):
# Pre-dose: Prior to the start of treatment with CHP as monotherapy
# Start and completion of treatment with CHP: The questionnaire has been completed every 4 weeks after the start of treatment (Week 4, 8, 12, 16, 20, 24) and 4 weeks upon the completion of the treatment with CHP as monotherapy. A scale value is given for each response that reflects a good quality of life. […] A higher score reflects a higher quality of life. The 5 domains of Quality of Life—Alzheimer's Disease-Dementia included are: 1. Enjoyment of activities, 2. Feelings and mood, 3. Awareness of self, 4. Social Interactions, 5. Illness global QoL.
# The following modified QLQ-C30 Version 1.0 has been used for the recording and assessment of the patient's conditions prior to and after the treatment with CHP.
# [5] = repeated oral dose of 3H-CHP for 7 consecutive days
# [6] = male, human, plasma, healthy subjects, oral 4×2.0 g CHP/day
# [7] = oral CHP, administration 4× daily
# [8] = after completion of treatment, 8 patients, pre dose 0
# [9] = after completion of treatment, 8 patients, pre dose 3
# [10] = after completion of treatment, 8 patients, pre-dose 0
smiles,measurement,setting,value
"O=C(O)[C@@H]1C[C@H](O)CN1 [CHP, cis-4-hydroxy-L-proline]",Penetration of the BBB,[1]; repeated dose of oral aqueous solution of 3H-CHP,Excellent penetration of the BBB
same,"AUC as % of total administered CHP in cerebrum, cerebelium, brain stem, limbic system and spinal fluid",[1]; [5],14.9%
same,"AUC as % of total administered CHP in loose connective tissues, cartilage, reticular connective tissue, dense/fibrous connective tissue, bone and bone marrow",[1]; [5],35%
same,"Half-Life time in cerebrum, cerebelium, brain stem and limbic system",[1]; [5],32.30 to 42.70 h
same,Cmax,[2]; [6],52.3 µg/mL
same,Tmax,[2]; [6],0.98 h
same,half-life,[2]; [6],34.2 h
same,MRT inf,"[2]; male, human, plasma, healthy subjects, oral 4×2.0 g CHP/day, read-out: MRT (0-inf)",9.33 h
same,Accumulation following oral administration,[2]; multiple oral doses of CHP,extensive
same,Time after which a steady state was observed,"[2]; multiple oral doses of CHP, 4× daily, simulation of plasma concentration-time curves",approximately 48 h
same,Plasma half-life relative to the dosing interval,"[2]; oral CHP 4× daily, τ=6 h",approximately 4 times
same,"Css,min lower if 2.0 g of CHP was administered (versus 3.0 g)",[2]; [7],36%
same,"Increase of AUCss,t, Css,max and Css,ave when the dose was increased from 2.0 g up to 3.0 g",[2]; [7],approximately 50%
same,Immunological activities,[3]; Examples 12.1-12.4,"increase of the immunological activities of interleukin-2, Interleukin-12, and Interferon-alpha"
same,Patients' Quality of Life (QoL questionnaires),[3]; Phase II clinical studies,improved drastically
same,Toxicity and safety as measured by the Common Toxicity Criteria CTC,[3]; Phase II clinical studies,"has not cause any nephrotoxicity, neurotoxicity, hepatotoxicity, cardiotoxicity and/or laboratory abnormalities"
same,Side effects observed,"[3]; Phase II clinical studies, CHP monotherapy",Only mild side effects such as nausea and/or vomiting
same,Tolerability,"[3]; all clinical studies, mostly patients over 60 years, e.g. 8 gram/day for approximately 180 consecutive days, oral and intravenous monotherapy",excellent tolerability
same,Drug-drug interactions on co-administration with drugs used by the patients,[3]; mostly elderly patients,no drug-drug interactions have been observed
same,Overall Physical Condition: number of patients rating 5,[4]; [8],5
same,Overall Physical Condition: number of patients rating 6,[4]; [8],1
same,Overall Physical Condition: number of patients rating 7,[4]; [8],0
same,Overall Quality of Life (QoL): number of patients rating 4,[4]; [8],3
same,Overall Quality of Life (QoL): number of patients rating 5,[4]; [8],3
same,Overall Quality of Life (QoL): number of patients rating 6,[4]; [8],2
same,Overall Quality of Life (QoL): number of patients rating 7,[4]; [8],0
same,Overall Physical Condition: number of patients rating 3,[4]; [9],1
same,Overall Physical Condition: number of patients rating 4,[4]; [9],1
same,Overall Quality of Life (QoL): number of patients rating 3,[4]; [9],0
same,Overall Cognitive Conditions: number of patients rating 5,[4]; [10],3
same,Overall Cognitive Conditions: number of patients rating 6,[4]; [10],1
same,Overall Cognitive Conditions: number of patients rating 7,[4]; [10],0
same,Overall Cognitive Conditions: number of patients rating 4,"[4]; after completion of treatment, 8 patients, pre-dose 1",3
same,Overall Cognitive Conditions: number of patients rating 3,"[4]; after completion of treatment, 8 patients, pre-dose 3",1
same,Overall Physical Condition: number of patients rating 2,"[4]; after completion of treatment, scale 1 = Very poor 7 = Excellent, 8 patients, pre dose 2",0
same,Overall Quality of Life (QoL): number of patients rating 2,"[4]; after completion of treatment, scale 1 = Very poor 7 = Excellent, 8 patients, pre dose 5",0
same,Overall Cognitive Conditions: number of patients rating 2,"[4]; after completion of treatment, scale 1 = Very poor 7 = Excellent, 8 patients, pre-dose 4",0
same,"Cognitive, physical, emotional conditions and quality of life in comparison to status prior to the start of the treatment","[4]; oral and/or intravenous CHP monotherapy, 90-540 consecutive days, 2-12 gram per day, mild or moderate Alzheimer's disease and dementia",significant improvement
same,Adverse events,[4]; patients with mild or moderate Alzheimer's disease,Only mild adverse events
